Earlier results as cited in patent US20240197726A1, “NOVEL TETRAHYDROISOQUINOLINE ALKALOID COMPOUND CONTAINING MACROCYCLE” (THE UNIVERSITY OF TOKYO, priority 2021, published 2024).
Read-outs that look alike come from different tables or passages of the source.

Tests used:
Conditions in all cases: cited from earlier work
[1] = system: HCT-116 colorectal cancer cells
[2] = system: MCF-7 breast cancer cells
[3] = system: NCI-H23 lung cancer cells
[4] = system: NCI-H460 lung cancer cells
[5] = system: HT-29 colorectal cancer cells
[6] = system: A549 lung cancer cells
[7] = system: MDA-MB-231 breast cancer cells
[8] = HCT-116 colorectal cancer cells, comparative value based on the literature, read-out: antitumor activity GI50 value: 50% growth inhibitory concentration
[9] = MCF-7 breast cancer cells, comparative value based on the literature, read-out: antitumor activity GI50 value: 50% growth inhibitory concentration
[10] = NCl-H23 lung cancer cells, comparative value based on the literature, read-out: antitumor activity GI50 value: 50% growth inhibitory concentration
[11] = NCl--H460 lung cancer cells, comparative value based on the literature, read-out: antitumor activity GI50 value: 50% growth inhibitory concentration
[12] = HT-29 colorectal cancer cells, comparative value based on the literature, read-out: antitumor activity GI50 value: 50% growth inhibitory concentration
[13] = A549 lung cancer cells, comparative value based on the literature, read-out: antitumor activity GI50 value: 50% growth inhibitory concentration
[14] = MDA-MB-231 breast cancer cells, comparative value based on the literature, read-out: antitumor activity GI50 value: 50% growth inhibitory concentration

Structure (SMILES)	GI50 ([1]; HCT-116, reference values from literature (Leal et al. Br. J Pharmacol, 2010), read-out: GI50 value: 50% growth inhibitory concentration)	GI50 ([2]; MCF-7, reference values from literature (Leal et al. Br. J Pharmacol, 2010), listed as drawing 118, read-out: GI50 value: 50% growth inhibitory concentration)	GI50 ([2]; MCF-7, reference values from literature (Leal et al. Br. J Pharmacol, 2010), listed as drawing 142, read-out: GI50 value: 50% growth inhibitory concentration)	GI50 ([3]; NCI-H23, reference values from literature (Leal et al. Br. J Pharmacol, 2010), read-out: GI50 value: 50% growth inhibitory concentration)	GI50 ([4]; NCI-H460, reference values from literature (Leal et al. Br. J Pharmacol, 2010), read-out: GI50 value: 50% growth inhibitory concentration)	GI50 ([5]; HT-29, reference values from literature (Leal et al. Br. J Pharmacol, 2010), read-out: GI50 value: 50% growth inhibitory concentration)	GI50 ([6]; A549, reference values from literature (Leal et al. Br. J Pharmacol, 2010), read-out: GI50 value: 50% growth inhibitory concentration)	GI50 ([7]; MDA-MB-231, reference values from literature (Leal et al. Br. J Pharmacol, 2010), read-out: GI50 value: 50% growth inhibitory concentration)	GI50 [1, 8]	GI50 [2, 9]	GI50 [3, 10]	GI50 [4, 11]	GI50 [5, 12]	GI50 [6, 13]	GI50 [7, 14]
COc1cc2c(cc1O)CCNC21CS[C@@H]2c3c(OC(C)=O)c(C)c4c(c3C(COC1=O)N1[C@@H]2[C@H]2c3c(cc(C)c(OC)c3O)C[C@@H]([C@@H]1O)N2C)OCO4 (stereo partly shown) [Ecteinascidin 743, reference compound]	4.9 nM	2.6 nM	2.8 nM	2.1 nM	1.8 nM	9.8 nM	10.4 nM	3.9 nM							
COc1c(C)cc2c(c1C)[C@H]1N(C)[C@@](C)(C2)C(O)N2C1(C)[C@@H]1CCC3(NCCc4cc(C)c(C)cc43)C(=O)OC[C@@]2(C)c2c3c(c(C)c(C)c21)OCO3 (stereo partly shown)									4.9 nM	2.6 nM	2.1 nM	1.8 nM	9.8 nM	10.4 nM	3.9 nM
COc1c(C)cc2c(c1C)[C@H]1N(C)[C@@](C)(C2)C(C)N2C1(C)[C@@H]1CCC3(CCCC4=C3Cc3ccc(C)cc34)C(=O)OC[C@@]2(C)c2c3c(c(C)c(C)c21)OCO3 (stereo partly shown) [drawing 163]									6.4 nM	1.7 nM	5.3 nM	1.5 nM	2.4 nM	1.3 nM	3.4 nM
